# Test results: US8394785B2, “Methods for the treatment and amelioration of urticaria” (Jado Technologies GmbH, priority 2005, dated 2013)
# What was measured:
# [1] = system: allergic volunteers with known type-1-sensitizations; assay: Prick test with patient-specific allergen after topical pre-treatment, wheal size; assay type: in vivo, human; settings: n = 5; for allergen-prick wheal ± standard error: miltefosine pre-treatment (6% solution, topical, 2 h before); for allergen-prick % inhibition ± standard error (by miltefosine pre-treatment): versus placebo pre-treatment
# Text: (§1) To provide proof of concept that miltefosine inhibits IgE-dependent human mast cell stimulation and mediator release in vivo we performed a study on selected allergic volunteers with known type-1-sensitizations (n=5). The volunteers were subjected to standard prick testing with their known allergens on both forearms as well as with positive (histamine) and negative (saline) controls (Table 3). Using a double blind, placebo controlled approach, one forearm of each test person was pre-treated with topical miltefosine (6% solution). The contralateral side was subjected to a pre-treatment with a placebo solution (saline), both two hours prior to the prick test. Subsequently, developing skin symptoms were measured with high-quality standardized methods, i.e. macroscopic standard prick test-evaluation (Heinzerling et al 2005), volumetric imaging, thermography, and digital time lapse photography (DTLP). Volunteers known to suffer from permanent severe diseases, especially those affecting the immune system, were excluded from the study. None of the volunteers took any oral […] or leukotriene antagonists within 7 days prior to the beginning of the study. Moreover, none of them took any oral or depot corticosteroids or other immunosuppressive drugs within 21 days before the testing. The course of developing lesions (wheal and erythema size) was assessed macroscopically by measuring vertical and perpendicular diameter of wheal and erythema size. Subsequently, the sum of both diameters was divided by two. In addition, volumetric and thermographic imaging as well as DTLP was performed before and at defined time points after prick testing. To assess the course of developing prick test lesions, wheal size was assessed macroscopically by measuring the diameters at distinct time points after prick testing.
# [2] = system: allergic volunteers with known type-1-sensitizations; assay: Prick test with histamine after topical pre-treatment, wheal size; assay type: in vivo, human; settings: n = 5; for histamine-prick wheal ± standard error: miltefosine pre-treatment (6% solution, topical, 2 h before); for histamine-prick % inhibition ± standard error (by miltefosine pre-treatment): versus placebo pre-treatment
# Text: as §1
smiles,measurement,setting,value
"CCCCCCCCCCCCCCCCOP(=O)([O-])OCC[N+](C)(C)C [Compound 3, 1-hexadecylphosphoryl-choline]",allergen-prick wheal ± standard error,[1]; 15 minutes after prick testing,4.20 ± 1.36 mm
same,allergen-prick wheal ± standard error,[1]; 20 minutes after prick testing,4.40 ± 1.34 mm
same,allergen-prick wheal ± standard error,[1]; 30 minutes after prick testing,2.90 ± 1.36 mm
same,allergen-prick % inhibition ± standard error (by miltefosine pre-treatment),[1]; 15 minutes after prick testing,35.0 ± 16.6%
same,allergen-prick % inhibition ± standard error (by miltefosine pre-treatment),[1]; 20 minutes after prick testing,34.8 ± 18.0%
same,allergen-prick % inhibition ± standard error (by miltefosine pre-treatment),[1]; 30 minutes after prick testing,51.8 ± 22.8%
same,histamine-prick wheal ± standard error,[2]; 15 minutes after prick testing,4.40 ± 0.86 mm
same,histamine-prick wheal ± standard error,[2]; 20 minutes after prick testing,4.30 ± 1.08 mm
same,histamine-prick wheal ± standard error,[2]; 30 minutes after prick testing,3.40 ± 1.43 mm
same,histamine-prick % inhibition ± standard error (by miltefosine pre-treatment),[2]; 15 minutes after prick testing,22.4 ± 14.2%
same,histamine-prick % inhibition ± standard error (by miltefosine pre-treatment),[2]; 20 minutes after prick testing,19.2 ± 23.1%
same,histamine-prick % inhibition ± standard error (by miltefosine pre-treatment),[2]; 30 minutes after prick testing,−7.9 ± 23.2%
